Experimental data: patent US20170050957A1, “4-AMINO-6-(HETEROCYCLIC)PICOLINATES AND 6-AMINO-2-(HETEROCYCLIC)PYRIMIDINE-4-CARBOXYLATES AND THEIR USE AS HERBICIDES” (Dow AgroSciences LLC, priority 2013, published 2017)
Read-outs that look alike come from different tables or passages of the source.

Legend:
[1] = system: Key Broadleaf Weed and Crop Species; experiment: Post-emergent Test II herbicidal activity (Table 15); assay type: in vivo; settings: post-emergence, 336 h, 14 d; for pest or weed control at 35 g/ha: 35 g ai/ha; for pest or weed control at 70 g/ha: 70 g ai/ha; for pest or weed control at 140 g/ha: 140 g ai/ha
In short: (§1)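 Visual injury rating (0 = none, 100% = complete kill) made 14 d after treatment, relative to untreated plants. Compounds in an acetone/DMSO/aqueous crop-oil/surfactant spray, at top rate and serial 1/2×-1/16× rates, were applied at 187 L/ha overhead to first-second true leaf plants raised 7-21 d in greenhouse.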

[2] = system: Key Grass and Sedge Weeds as well as Grass Crops; experiment: Post-emergent Test II herbicidal activity (Table 16); assay type: in vivo; settings: post-emergence, 336 h, 14 days after application; for pest or weed control at 35 g/ha: 35 g ai/ha; for pest or weed control at 70 g/ha: 70 g ai/ha; for pest or weed control at 140 g/ha: 140 g ai/ha
In short: as §1

[3] = Abutilon theophrasti, velvetleaf (Abutilon theophrasti), read-out: Visual Growth Reduction (%) 14 Days After Application, ABUTH
[4] = Amaranthus retroflexus, redroot pigweed (Amaranthus retroflexus), read-out: Visual Growth Reduction (%) 14 Days After Application, AMARE
[5] = Brassica napus, oilseed rape, canola (Brassica napus), read-out: Visual Growth Reduction (%) 14 Days After Application, BRSNN
[6] = Chenopodium album, lambsquarters (Chenopodium album), read-out: Visual Growth Reduction (%) 14 Days After Application, CHEAL
[7] = Euphorbia heterophylla, wild poinsettia (Euphorbia heterophylla), read-out: Visual Growth Reduction (%) 14 Days After Application, EPHHL
[8] = Helianthus annuus, sunflower (Helianthus annuus), read-out: Visual Growth Reduction (%) 14 Days After Application, HELAN
[9] = Cyperus esculentus, yellow nutsedge (Cyperus esculentus), read-out: Visual Growth Reduction (%) 14 Days After Application CYPES
[10] = Echinochloa crus-galli, barnyardgrass (Echinochloa crus-galli), read-out: Visual Growth Reduction (%) 14 Days After Application ECHCG
[11] = Oryza sativa, rice (Oryza sativa), read-out: Visual Growth Reduction (%) 14 Days After Application ORYSA
[12] = Setaria faberi, giant foxtail (Setaria faberi), read-out: Visual Growth Reduction (%) 14 Days After Application SETFA
[13] = Triticum aestivum, wheat, spring (Triticum aestivum), read-out: Visual Growth Reduction (%) 14 Days After Application TRZAS
[14] = Zea mays, maize, corn (Zea mays), read-out: Visual Growth Reduction (%) 14 Days After Application ZEAMX

SMILES	pest or weed control at 35 g/ha [1, 3]	pest or weed control at 70 g/ha [1, 3]	pest or weed control at 140 g/ha [1, 3]	pest or weed control at 35 g/ha [1, 4]	pest or weed control at 70 g/ha [1, 4]	pest or weed control at 140 g/ha [1, 4]	pest or weed control at 35 g/ha [1, 5]	pest or weed control at 70 g/ha [1, 5]	pest or weed control at 140 g/ha [1, 5]	pest or weed control at 35 g/ha [1, 6]	pest or weed control at 70 g/ha [1, 6]	pest or weed control at 140 g/ha [1, 6]	pest or weed control at 35 g/ha [1, 7]	pest or weed control at 70 g/ha [1, 7]	pest or weed control at 140 g/ha [1, 7]	pest or weed control at 35 g/ha [1, 8]	pest or weed control at 70 g/ha [1, 8]	pest or weed control at 140 g/ha [1, 8]	pest or weed control at 35 g/ha [2, 9]	pest or weed control at 70 g/ha [2, 9]	further results
COC(=O)c1nc(-c2ccc3cn[nH]c3c2)c(F)c(N)c1Cl [Compound 4.05]	0 to 29%	0 to 29%	45 to 59%	0 to 29%	95 to 100%	95 to 100%	0 to 29%	0 to 29%	45 to 59%	85 to 94%	85 to 94%	95 to 100%	60 to 74%	95 to 100%	95 to 100%	60 to 74%	60 to 74%	95 to 100%	0 to 29%	0 to 29%	pest or weed control at 140 g/ha [2, 9]: 0 to 29%; pest or weed control at 140 g/ha [2, 10]: 85 to 94%; pest or weed control at 35 g/ha [2, 11]: 0 to 29%; pest or weed control at 70 g/ha [2, 11]: 0 to 29%; pest or weed control at 140 g/ha [2, 11]: 0 to 29%; pest or weed control at 140 g/ha [2, 12]: 95 to 100%; pest or weed control at 35 g/ha [2, 13]: 0 to 29%; pest or weed control at 70 g/ha [2, 13]: 0 to 29%; pest or weed control at 140 g/ha [2, 13]: 0 to 29%; pest or weed control at 35 g/ha [2, 14]: 0 to 29%; pest or weed control at 70 g/ha [2, 14]: 60 to 74%; pest or weed control at 140 g/ha [2, 14]: 60 to 74%; melting point: 185 to 187 °C
Nc1c(F)c(-c2ccc3cn[nH]c3c2)nc(C(=O)O)c1Cl [Compound 4.06]	0 to 29%	0 to 29%	0 to 29%	75 to 84%	95 to 100%	95 to 100%	60 to 74%	75 to 84%	85 to 94%	0 to 29%	45 to 59%	95 to 100%	45 to 59%	60 to 74%	85 to 94%	45 to 59%	60 to 74%	75 to 84%	0 to 29%	0 to 29%	pest or weed control at 140 g/ha [2, 9]: 0 to 29%; pest or weed control at 35 g/ha [2, 10]: 0 to 29%; pest or weed control at 70 g/ha [2, 10]: 45 to 59%; pest or weed control at 140 g/ha [2, 10]: 75 to 84%; pest or weed control at 35 g/ha [2, 11]: 0 to 29%; pest or weed control at 70 g/ha [2, 11]: 0 to 29%; pest or weed control at 140 g/ha [2, 11]: 0 to 29%; pest or weed control at 35 g/ha [2, 12]: 0 to 29%; pest or weed control at 70 g/ha [2, 12]: 0 to 29%; pest or weed control at 140 g/ha [2, 12]: 45 to 59%; pest or weed control at 35 g/ha [2, 13]: 0 to 29%; pest or weed control at 70 g/ha [2, 13]: 0 to 29%; pest or weed control at 140 g/ha [2, 13]: 0 to 29%; pest or weed control at 35 g/ha [2, 14]: 0 to 29%; pest or weed control at 70 g/ha [2, 14]: 0 to 29%; pest or weed control at 140 g/ha [2, 14]: 0 to 29%; melting point: > 300 °C
COC(=O)c1nc(-c2ccc3cn[nH]c3c2)cc(N)c1Cl [Compound 4.09]	0 to 29%	0 to 29%	0 to 29%	0 to 29%	45 to 59%	85 to 94%	0 to 29%	0 to 29%	60 to 74%	45 to 59%	75 to 84%	85 to 94%	0 to 29%	0 to 29%	0 to 29%	0 to 29%	30 to 44%	45 to 59%	0 to 29%	0 to 29%	pest or weed control at 140 g/ha [2, 9]: 0 to 29%; pest or weed control at 35 g/ha [2, 10]: 0 to 29%; pest or weed control at 70 g/ha [2, 10]: 0 to 29%; pest or weed control at 140 g/ha [2, 10]: 0 to 29%; pest or weed control at 35 g/ha [2, 11]: 0 to 29%; pest or weed control at 70 g/ha [2, 11]: 0 to 29%; pest or weed control at 140 g/ha [2, 11]: 0 to 29%; pest or weed control at 35 g/ha [2, 12]: 0 to 29%; pest or weed control at 70 g/ha [2, 12]: 0 to 29%; pest or weed control at 140 g/ha [2, 12]: 0 to 29%; pest or weed control at 35 g/ha [2, 13]: 0 to 29%; pest or weed control at 70 g/ha [2, 13]: 0 to 29%; pest or weed control at 140 g/ha [2, 13]: 0 to 29%; pest or weed control at 35 g/ha [2, 14]: 0 to 29%; pest or weed control at 70 g/ha [2, 14]: 0 to 29%; pest or weed control at 140 g/ha [2, 14]: 0 to 29%; melting point: 191 to 193 °C
